According to paper PMC3435281 (PLoS ONE, 2012):

Legend:
[1] = system: AHR^fxneo/fxneo and AHR^fxneo/+ pups; assay: In utero exposure, closure of ductus venosus (DV); assay type: in vivo, mouse; conditions: dams 110 mg/kg i.p. at E18.5, examined at 4 weeks
Method: We have previously shown that genetically altered mice that express only 10% of the AHR display a patent ductus venosus (DV) in the liver in nearly all cases. We additionally identified that in utero activation of the receptor in the hypomorphs with TCDD successfully closed the DV [5]. […] At 4 weeks of age, the pups were sacrificed, and DV status was examined by hepatic perfusion with trypan blue.
Timed mating of female AHR^fxneo/+ mice to male AHR^fxneo/fxneo mice was performed. […] When the pups were 4 weeks of age, the status of the DV was determined by hepatic perfusion with Trypan Blue as previously described. Briefly, each mouse was anesthetized and its liver was flushed with PBS through the cannulated portal vein. […] Trypan blue was injected through the portal vein until the liver visibly turned blue (in the case of a closed DV) or until the dye was seen exiting the IVC without perfusing the liver (when the DV is open).

murine AHR^d [2] = assay: EROD activity in AHR^d-15 cells (rat hepatoma BP8 stably transfected with AHR^d); conditions: 5L versus AHR^d-15 cells, 40 hours
Description: (§1) The 100 “hit compounds” from the primary screen were subsequently screened for their capacity to activate the low-affinity murine AHR^d receptor isoform using the activity of the endogenous Cyp1a1 gene as a readout. To this end, we established a hepatoma cell line that expresses the AHR^d receptor isoform derived from the DBA/2J mouse. An AHR^d-expressing cell line was generated by stably transfecting the AHR^d cDNA into the rat hepatoma AHR-deficient cell line, BP8 [15]. After stable selection with G418, a subclone (AHR^d-15) was analyzed for receptor expression and function. […] To confirm that the AHR^d-15 clone expressed a functional low affinity AHR^d isoform, we examined the receptor-mediated response to the prototype agonists, TCDD and β-naphthoflavone (BNF).
(§2) To test the ability of the 100 AHR inducers to activate the AHR^d-15 cells, they were treated with each of the compounds at the dose of 1 µM, for 36 hours in 96-well plates.
(§3) Figure 3 In Vitro dose response curves. A. Rat hepatoma cell lines bearing the murine AHR^d (AHR^d-15) or the rat AHR^b (5L) were incubated with increasing doses of TCDD in 96-well plates. After 40 hours, EROD activity was performed from whole cell lysate. (n = 3). […] (n = 3). C. Same assay as in A, with increasing doses of BNF. (n = 2). […] Following 48 hours, hepatic microsomal proteins were isolated and used for the assessment of EROD activity. Animals were treated in groups of 4. Error bars: S.D.
(§4) The open reading frame of the AHR^d gene (PL2047) was amplified by PCR using oligos OL5127 (5′-[…]-3′) and OL5128 (5′-[…]-3′). The product was ligated into the pTARGET™ mammalian expression vector (Promega, Madison, WI). The resulting plasmid was transfected into the AHR-deficient cell line, BP8 [15], using Effectene transfection reagent (Qiagen Inc., Valencia, CA). Stable integrants were selected with 6 mg/ml of G418 for 2 weeks, beginning at 48-hours post-transfection. Clones derived from single cells were screened for their response to nanomolar doses of dioxin or micromolar doses of BNF, as measured by ethoxyresorufin O-deethylase (EROD) activity. […] The validated cell line used in these studies was designated line AHR^d-15.
(§5) High-throughput analysis of EROD activity was assayed by adapting a protocol that was described elsewhere, [63]. Briefly, cells were seeded into 96-well plates at ∼ 60% density and treated with the test compounds for 36 hours. The cells were washed with PBS and lysed with 30 µL water and a cycle of freeze-thaw. To each well, 150 µL of 50 mM Hepes buffer containing 26.7 µM dicumarol and 13.3 µM ethoxyresorufin were added. The samples were incubated at 30°C for 20 minutes, and 50 µL of 0.5 mM β-NADPH were added to initiate the reaction. Fluorescence of the resorufin product was detected using the 544 nm excitation and 590 nm emission wavelength filter set.

rat AHR^b (5L) = target: T1, rat AHR^b (5L) (Rattus norvegicus, UniProt P41738); assay: EROD activity in rat hepatoma 5L cells; assay type: cell-based; conditions: 5L versus AHR^d-15 cells, 40 hours
T1 construct: endogenous in cells; host or cells: rat hepatoma 5L cells
T1 sequence (P41738 10-853): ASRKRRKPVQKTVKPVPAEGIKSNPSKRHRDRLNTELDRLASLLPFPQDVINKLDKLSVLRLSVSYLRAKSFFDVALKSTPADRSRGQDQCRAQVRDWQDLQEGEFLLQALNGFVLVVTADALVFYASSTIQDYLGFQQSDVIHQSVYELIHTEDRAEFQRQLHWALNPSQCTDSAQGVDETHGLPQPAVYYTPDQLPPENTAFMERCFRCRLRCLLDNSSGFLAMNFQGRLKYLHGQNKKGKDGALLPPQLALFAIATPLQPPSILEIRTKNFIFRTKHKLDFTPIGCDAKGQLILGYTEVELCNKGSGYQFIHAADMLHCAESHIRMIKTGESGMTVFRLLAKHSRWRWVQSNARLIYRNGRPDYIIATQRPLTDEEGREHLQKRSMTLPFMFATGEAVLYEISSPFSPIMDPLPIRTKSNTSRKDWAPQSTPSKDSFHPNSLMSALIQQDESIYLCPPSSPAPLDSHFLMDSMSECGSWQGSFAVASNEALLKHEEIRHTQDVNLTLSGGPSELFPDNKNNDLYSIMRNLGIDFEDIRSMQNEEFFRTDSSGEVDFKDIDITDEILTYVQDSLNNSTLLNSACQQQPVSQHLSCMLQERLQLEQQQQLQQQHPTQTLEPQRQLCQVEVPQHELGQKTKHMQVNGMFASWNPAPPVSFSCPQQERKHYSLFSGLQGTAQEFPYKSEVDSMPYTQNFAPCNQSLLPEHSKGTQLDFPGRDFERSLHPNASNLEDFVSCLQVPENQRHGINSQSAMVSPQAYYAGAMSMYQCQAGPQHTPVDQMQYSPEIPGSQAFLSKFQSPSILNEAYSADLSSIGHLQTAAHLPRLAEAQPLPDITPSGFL
Method: We utilized the wild type rat hepatoma cell line, 5L, which harbors the high affinity AHR isoform, and our newly created AHR^d-15 cell line. […] Groups of control mice were given corn oil alone or BNF at the concentration of 120 mg/kg.
as §3, §5

murine AHR^d [3] = target: T2, murine AHR^d (Mus musculus, UniProt P30561, A375V); assay: EROD activity in AHR^d-15 cells (rat hepatoma BP8 stably transfected with AHR^d)
T2 sequence (P30561 10-848 A375V): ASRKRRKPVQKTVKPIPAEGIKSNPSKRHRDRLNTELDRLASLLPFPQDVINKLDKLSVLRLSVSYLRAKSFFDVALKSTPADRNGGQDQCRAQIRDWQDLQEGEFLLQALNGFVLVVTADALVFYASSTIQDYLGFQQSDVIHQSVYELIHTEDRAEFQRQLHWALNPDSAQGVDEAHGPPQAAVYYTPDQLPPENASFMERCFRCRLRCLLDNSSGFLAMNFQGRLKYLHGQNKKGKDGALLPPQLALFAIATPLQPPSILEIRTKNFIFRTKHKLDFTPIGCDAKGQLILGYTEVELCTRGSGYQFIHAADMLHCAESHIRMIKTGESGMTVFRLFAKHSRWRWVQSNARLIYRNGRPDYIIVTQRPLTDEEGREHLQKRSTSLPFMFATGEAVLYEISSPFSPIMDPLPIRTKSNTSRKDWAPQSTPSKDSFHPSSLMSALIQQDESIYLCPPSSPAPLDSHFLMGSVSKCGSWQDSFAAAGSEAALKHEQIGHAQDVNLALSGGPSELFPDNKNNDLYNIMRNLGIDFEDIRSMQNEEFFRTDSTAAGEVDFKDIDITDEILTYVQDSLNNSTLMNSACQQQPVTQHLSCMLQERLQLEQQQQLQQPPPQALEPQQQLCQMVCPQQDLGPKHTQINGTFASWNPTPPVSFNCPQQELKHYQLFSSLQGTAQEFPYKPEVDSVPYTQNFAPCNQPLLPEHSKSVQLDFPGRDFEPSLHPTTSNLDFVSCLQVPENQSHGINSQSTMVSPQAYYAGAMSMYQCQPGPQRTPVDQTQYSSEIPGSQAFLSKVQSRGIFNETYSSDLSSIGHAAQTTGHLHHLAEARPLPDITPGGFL
Description: as §1, §2, §3, §4, §5

Row | Structure (SMILES) | closed DV, percent of pups ([1]; AHR^fxneo/+ pups) [%] | closed DV, percent of pups ([1]; AHR^fxneo/fxneo pups) [%] | cytochrome P450 induction (EROD), comparison of the two cell lines (murine AHR^d [2]) | shift of EROD dose-response to the left for the AHR^b isoform (rat AHR^b (5L)) | EC50 (murine AHR^d [3]) [nM] | induction of AHR^d-mediated EROD activity (murine AHR^d [3]; AHR^d-15 cells, positive control 2 nM, 36 hours)
1 | Cc1cc(C)c(C=C2C(=O)Nc3ccccc32)[nH]1 [SU5416, 3-(3,5-dimethyl-1H-pyrrol-2-ylmethylene)-1,3-dihydro-indole-2-one] | 100 | 59 | equal potency |  |  | 
2 | Clc1cc2c(cc1Cl)Oc1cc(Cl)c(Cl)cc1O2 [TCDD, 2,3,7,8-tetrachlorodibenzo-p-dioxin] |  |  |  | 1.5 orders of magnitude | ~30 | greater than 5 fold
